{"source": "patent US20110177061A1", "about": "“METHODS OF TREATING AND PREVENTING NEUROLOGICAL DISORDERS USING DOCOSAHEXAENOIC ACID” (MARTEK BIOSCIENCES CORPORATION, priority 2009, published 2011)", "key": {"[1]": {"test_system": "human patients with mild to moderate Alzheimer's disease", "test": "MMSE (secondary outcome) in clinical trial", "assay_type": "in vivo", "method": "(§1) A clinical trial was carried out to determine whether chronic DHA supplementation slows the progression of cognitive and functional decline in human patients with mild to moderate Alzheimer's disease. In the study, 402 individuals with mild to moderate Alzheimer's disease participated for 18 months at sites throughout the United States. Participants were randomized so that 60% of participants received approximately 2 grams of DHA (divided into 4 capsules—2 capsules taken twice a day), while 40% of the participants received an identical placebo of corn/soy oil. The DHA soft-gel capsules used in the study were provided by Martek Biosciences Corporation, and contained a microbial oil of 55% DHA (as a percentage of total fatty acids) in triglyceride form, in addition to tocopherol and orange flavoring. The capsules contained no detectable EPA. The placebo was a 50/50 mixture of corn/soy oil and also included mixed tocopherols, ascorbyl, palmitate, orange flavoring, and orange masking agent. Following the eligibility assessment, 238 of the 402 patients were randomly assigned to the DHA treatment group and 164 patients to the placebo group. Of the 238 patient DHA treatment group, 171 patients completed the full 18 month course of treatment. Of the 164 placebo group, 124 patients completed the full 18 month course of treatment. Various parameters were measured at baseline and at every 6 months through the conclusion of the trial at 18 months."}, "[2]": {"test_system": "human patients with mild to moderate Alzheimer's disease", "test": "Pre-planned secondary analysis of DHA treatment and ApoE4 allelic status, all outcome measures", "assay_type": "in vivo", "method": "(§2) A clinical trial was carried out to determine whether chronic DHA supplementation slows the progression of cognitive and functional decline in human patients with mild to moderate Alzheimer's disease.\n(§3) In the study, 402 individuals with mild to moderate Alzheimer's disease participated for 18 months at sites throughout the United States. Participants were randomized so that 60% of participants received approximately 2 grams of DHA (divided into 4 capsules—2 capsules taken twice a day), while 40% of the participants received an identical placebo of corn/soy oil. The DHA soft-gel capsules used in the study were provided by Martek Biosciences Corporation, and contained a microbial oil of 55% DHA (as a percentage of total fatty acids) in triglyceride form, in addition to tocopherol and orange flavoring. The capsules contained no detectable EPA. The placebo was a 50/50 mixture of corn/soy oil and also included mixed tocopherols, ascorbyl, palmitate, orange flavoring, and orange masking agent.\nA pre-planned secondary analysis was also carried out examining the effect of DHA treatment and ApoE4 (E4) allelic status. […] This effect was also evident on the MMSE (−3.36±4.78 in DHA compared to 5.12±5.08 in placebo; p=0.034), but was not present on the CDR-SOB, the ADCS-ADL, or the NPI."}, "[3]": {"test_system": "human patients with mild to moderate Alzheimer's disease", "test": "Vital signs and lab results in clinical trial", "assay_type": "in vivo", "details": "18 month trial", "method": "as §2, §3\n(§4) Various parameters were measured at baseline and at every 6 months through the conclusion of the trial at 18 months."}, "[4]": {"test_system": "human patients with mild to moderate Alzheimer's disease", "test": "ADCS-ADL (secondary outcome) in clinical trial", "assay_type": "in vivo", "method": "as §1"}, "[5]": {"test": "Cerebrospinal fluid (CSF) DHA levels in CSF sub-study", "assay_type": "in vivo, human", "method": "All subjects without contraindication to cerebrospinal fluid (CSF) exam (e.g., anticoagulation) were invited to participate in the CSF study. In these subjects, lumbar puncture was performed in the morning after an overnight fast.\n(§5) Plasma phospholipid fatty acid levels were determined using established methods, with modifications for cerebrospinal fluid analysis (Arterburn et al., 2007, Lipids 42(11):1011-1024; Arterburn et al., 2008, J Am Diet Assoc. 108(7):1204-1209). The fatty acid profiles were expressed as a percent of the total μg of fatty acid (weight percent)."}, "[6]": {"test_system": "human patients with mild to moderate Alzheimer's disease", "test": "CDR-SOB (co-primary outcome) in clinical trial", "assay_type": "in vivo", "method": "as §1"}, "[7]": {"test_system": "human patients with mild to moderate Alzheimer's disease", "test": "MRI sub-study, brain volume change", "assay_type": "in vivo", "method": "as §3, with “A clinical trial was carried out to determine whether chronic DHA supplementation slows the progression of cognitive and functional decline in human patients with mild to moderate Alzheimer's disease. In” for “In”"}, "[8]": {"test_system": "human patients with mild to moderate Alzheimer's disease", "test": "ADAS-cog (co-primary outcome) in clinical trial", "assay_type": "in vivo", "method": "as §1"}, "[9]": {"test": "Plasma phospholipid DHA levels in clinical trial", "assay_type": "in vivo, human", "details": "DHA treatment group", "from_the_text": "as §3, §4, §5"}, "[10]": {"test_system": "human patients with mild to moderate Alzheimer's disease", "test": "NPI (secondary outcome) in clinical trial", "assay_type": "in vivo", "method": "as §1"}, "[11]": {"details": "all subjects, LME model, GEE or ANCOVA"}}, "note": "Entries after “also recorded” stand apart in the source; their conditions may differ.", "data": [{"compound": "CC/C=C\\C/C=C\\C/C=C\\C/C=C\\C/C=C\\C/C=C\\CCC(=O)O", "note": "[DHA, (all-Z)-4,7,10,13,16,19-docosahexaenoic acid]", "values": [{"measurement": "MMSE change, E4-negative group", "setting": "[1]; ApoE4-negative, placebo printed 5.12±5.08, p=0.034", "result": "−3.36±4.78"}, {"measurement": "MMSE points change from baseline to 18 months", "setting": "[1]; all subjects, ANCOVA, placebo −4.0±4.7, p=0.88", "result": "−3.70±4.95", "unit": "points"}, {"measurement": "Difference DHA vs placebo on MMSE", "setting": "[1]; all subjects, after 18 months of treatment", "result": "no significant difference"}, {"measurement": "Benefit in reducing decline in cognitive ability in AD subjects negative for the ApoE4 allele", "setting": "[2]; ApoE4-negative subjects afflicted with AD", "result": "significant benefit"}, {"measurement": "DHA treatment effect on any outcome measure in the E4-positive group", "setting": "[2]; ApoE4-positive subjects", "result": "no DHA treatment effect"}, {"measurement": "Cholesterol level change", "setting": "[3]", "result": "modest increase"}, {"measurement": "Diastolic blood pressure change", "setting": "[3]", "result": "modest decline"}, {"measurement": "HDL level change", "setting": "[3]", "result": "no change"}, {"measurement": "Heart rate change", "setting": "[3]", "result": "modest decline"}, {"measurement": "LDL level change", "setting": "[3]", "result": "modest increase"}, {"measurement": "Systolic blood pressure change", "setting": "[3]", "result": "no change"}, {"measurement": "Triglycerides change", "setting": "[3]", "result": "modest decline"}, {"measurement": "Weight change", "setting": "[3]", "result": "no change"}, {"measurement": "DHA treatment effect on ADCS-ADL in the E4-negative group", "setting": "[4]; ApoE4-negative subjects", "result": "not present"}, {"measurement": "ADCS-ADL points change over 18 months (rate of decline)", "setting": "[4]; all subjects, LME analysis, placebo 10.43±11.74, p=0.38", "result": "11.51±13.23", "unit": "points"}, {"measurement": "Difference DHA vs placebo on ADCS-ADL", "setting": "[4]; [11]", "result": "no significant difference"}, {"measurement": "CSF DHA", "setting": "[5]; DHA supplemented group n=29, 18 months, p<0.001", "result": 3.45, "unit": "wt %"}, {"measurement": "CSF DHA", "setting": "[5]; DHA supplemented group n=29, baseline (before treatment)", "result": 2.53, "unit": "wt %"}, {"measurement": "DHA treatment effect on CDR-SOB in the E4-negative group", "setting": "[6]; ApoE4-negative subjects", "result": "not present"}, {"measurement": "Difference DHA vs placebo on CDR-SOB (rate of change)", "setting": "[6]; all subjects, LME model, GEE or ANCOVA, ITT or per protocol", "result": "also did not differ; also recorded: no significant difference"}, {"measurement": "CDR-SOB points change over 18 months", "setting": "[6]; all subjects, placebo 2.87±2.93, p=0.68", "result": "2.93±2.83", "unit": "points"}, {"measurement": "Absolute volume change over 18 months, total ventricular volume", "setting": "[7]; MRI sub-study n=53 DHA, placebo 8.1±5.9, p=0.55", "result": "9.1±5.0", "unit": "cm^3"}, {"measurement": "Absolute volume change over 18 months, total brain", "setting": "[7]; MRI sub-study n=53 DHA, placebo 24.0±14.6, p=0.79", "result": "24.7±12.3", "unit": "cm^3"}, {"measurement": "Absolute volume change over 18 months, right hippocampus", "setting": "[7]; MRI sub-study n=53 DHA, placebo 148±109, p=0.29", "result": "176±128", "unit": "mm^3"}, {"measurement": "Absolute volume change over 18 months, left hippocampus", "setting": "[7]; MRI sub-study n=53 DHA, placebo 175±135, p=0.17", "result": "141±104", "unit": "mm^3"}, {"measurement": "Effect of DHA treatment on absolute amount of brain volume change over 18 months", "setting": "[7]; MRI sub-study, ANCOVA, total brain, hippocampus, total ventricular volume", "result": "no evidence of an effect"}, {"measurement": "Effect of DHA on rates of brain atrophy among ApoE4 negative subjects", "setting": "[7]; MRI sub-study, n=21 DHA, n=17 placebo", "result": "Neither was an effect of DHA seen"}, {"measurement": "ADAS-cog points change over 18 months, E4-negative group", "setting": "[8]; ApoE4-negative, 61 DHA subjects, placebo 10.11±10.58 (48 subjects), p=0.028", "result": "6.23±8.58", "unit": "points"}, {"measurement": "Difference DHA vs placebo in 12 month ADAS scores", "setting": "[8]; Wilcoxan rank p=0.027, FIG. 1", "result": "modest difference"}, {"measurement": "Difference DHA vs placebo on ADAS-cog (rate of change)", "setting": "[8]; all subjects, LME model, 18 months", "result": "did not differ; also recorded: no significant difference"}, {"measurement": "ADAS-cog points change over 18 months", "setting": "[8]; all subjects, unadjusted, placebo 7.98±9.84, p=0.41", "result": "8.27±8.9", "unit": "points"}, {"measurement": "ADAS-cog decline in ApoE4 negative subjects with MMSE >21 compared to MMSE ≦21", "setting": "[8]; post hoc analysis, FIGS. 7A and 7B", "result": "significantly less decline; also recorded: more pronounced"}, {"measurement": "Difference in the effect of DHA administration on ADAS-cog between ApoE4-positive and ApoE4-negative subjects", "setting": "[8]; pre-specified sub-group analysis, FIGS. 6A and 6B", "result": "statistically significant difference"}, {"measurement": "Plasma phospholipid DHA", "setting": "[9]; approx. 2 g DHA/day oral, 6 months", "result": 9.1, "unit": "wt %"}, {"measurement": "Plasma phospholipid DHA", "setting": "[9]; approx. 2 g DHA/day oral, 12 months", "result": 10.23, "unit": "wt %"}, {"measurement": "Plasma phospholipid DHA", "setting": "[9]; approx. 2 g DHA/day oral, 18 months, p<0.001", "result": 9.77, "unit": "wt %"}, {"measurement": "Plasma phospholipid DHA", "setting": "[9]; baseline (before treatment)", "result": 3.18, "unit": "wt %"}, {"measurement": "DHA treatment effect on NPI in the E4-negative group", "setting": "[10]; ApoE4-negative subjects", "result": "not present"}, {"measurement": "NPI points change over 18 months", "setting": "[10]; all subjects, LME analysis, placebo 5.09±15.08, p=0.11", "result": "2.93±13.62", "unit": "points"}, {"measurement": "Difference DHA vs placebo on NPI", "setting": "[10]; [11]", "result": "no significant difference"}]}]}
